Values quoted from earlier work as cited in patent publication US5304296A, “Glass pH electrodes” (National Power PLC, priority 1990, dated 1994).

pKa at 20° C.: 6.62
SMILES: NC(=O)CN(CC(=O)O)CC(=O)O [ADA, N-(2-acetamido)iminodiacetic acid]
